Measured values taken from patent US20230272077A1, “PD-1 SIGNAL INHIBITOR COMBINATION THERAPY” (KYOTO UNIVERSITY, priority 2015, published 2023).
“Also recorded” adds a separate entry of the source.

Assays:
[1] = system: mTOR and its associated proteins S6K and 4EBP1; assay: Western blotting of DLN CD8+ T cells, mTOR pathway; type: in vivo, mouse; conditions: CD8+ T cells from mice treated with PD-L1 antibody and reagent
Method: FIG. 7. […] Phosphorylation of AMPK, ACC, mTOR and S6K and the expression of SIRT1 and 4EBP1 were analyzed by Western blotting. b) MC38-bearing mice were treated with PD-L1 antibody in combination with AMPK activator (A769662) and/or mTOR activator (MHY1485) according to the same schedule as shown in FIG. 3b.
CD8^+ T cells were isolated using mouse CD8 Microbeads (Miltenyi Biotec). After washing with PBS twice, 2×10^6 cells were solubilized in a lysis buffer containing 30 mM Tris-HCl (pH.7.4), 150 mM NaCl, 10% glycerol, 0.1% SDS, 1% Triton-X-100, 0.05% Na-Doc, 5 mM EDTA (pH.8.0), protease inhibitor mixture (Roche Molecular Biochemicals) and phosphatase inhibitors (Nacalai Tesque). After measurement of protein concentrations by DC protein assay (Bio-Rad), 4 μg of proteins was mounted on 4 to 20% gradient Mini-PROTEAN TGX Gels (Bio-Rad) and electroblotted onto nitrocellulose membranes, which were then incubated in a blocking buffer of TBS containing 1% BSA. Primary antibody incubations were carried out overnight at 4° C. in blocking buffer. After washing, secondary antibody incubations were carried out at room temperature for 40 min in blocking buffer. Blots were developed with enhanced chemiluminescence (Amersham Pharmacia). […]

CD8+ T cells = system: CD8+ T cells
Method: FIG. 6. […] Draining lymph node (DLN) cells on day 14 were stained with anti-CD8, -CD62L, and -CD44 antibodies, and then CD8^+ T cells were gated. P1 to P3 populations were defined based on the intensities of CD62L and CD44 (Upper). The absolute cell numbers of P1 to P3 in each group were calculated. […] Representative FACS profiles of P1 to P3 (Upper). Representative FACS profiles of the P3 population stained with each mitochondrial dye in each group (Middle). MFI of P1 to P3 stained with each dye was compared between treated groups. Colors correspond to the P1 to P3 populations. […] CD45^+ CD8^+ T cells were gated, and their CD62L and CD44 phenotypes were analyzed (Left). The frequencies of CD8^+ T cells in CD45^+ T cells and the absolute numbers of CD45^+ CD8^+ T cells were compared between groups (Right). Data represent the means±SEM of five mice. *p<0.05, **p<0.01, one-way ANOVA analysis. FACS data are representative of five mice in each group.
For analyzing draining lymph nodes, cells from axillary, brachial, and inguinal lymph nodes on the right side of tumor-inoculated mice were harvested and mixed. Averaged cell numbers per one lymph node were used as absolute cell numbers. For tumor analysis, tumor tissues were minced into 2- to 3-mm pieces with scissors and digested with collagenase type IV (Thermo Fisher Scientific) using a gentle MACS Dissociator (Miltenyi Biotec). The numbers of tumor cells per mg were used as absolute numbers. Tumor cells were isolated from digested tumor tissues using a Tumor Cell Isolation Kit, mouse (Miltenyi Biotec). This kit purifies tumor cells by excluding lymphocytes, red blood cells, fibroblasts, endothelial cells and tumor-associated stromal cells. The resultant tumor cell population was further isolated/purified with FACS Aria (BD Biosciences).
The following antibodies recognizing the indicated antigens were used: CD44 (1M7), CD45.2 (104), CD45.1 (A20), CD8 (53-6.7), CD62L (MEL-14), T-bet (4B/O) and IFN-7 (XMG1.2), MHC class I (AF6-88.5), CD155 (Tx56) and VISTA (MIH63) from BioLegend; p-AMPK (EPR5683) from Ancam; p-mTOR (MRRBY), Eomes (Danllmag) and PD-L1 (M1H5) from eBioscience. All flow cytometry experiments were performed on a FACS Canto II (BD Biosciences) and analyzed using FlowJo software (FLOWJO, LLC). For assessment of intracellular phosphoproteins, cells were permeabilized with 0.5% Triton-X and fixed with 1.5% PFA before staining. Determination of mitochondrial mass, membrane potential, mitochondrial superoxide and cellular ROS was performed using MitoTracker Green, Mito-Tracker Deep Red, MitoSOX Red, and CellROX Green reagents, respectively (all from Life Technologies). […]

N#CC(C#N)=NNc1ccc(OC(F)(F)F)cc1 [FCCP, carbonyl cyanide p-trifluoromethoxyphenylhydrazone]
activation of mTOR and its associated proteins S6K and 4EBP1 [1]: also found to be activated | mitochondrial membrane potential and ROS in P3 population (CD8+ T cells; MC38-bearing mice, FCCP combined with PD-L1 antibody): significantly augmented | absolute number and proportion of effector CD8+ T cells (CD62L- CD44+, P3) in DLNs (CD8+ T cells; MC38-bearing mice, PD-L1 antibody + FCCP vs anti-PD-L1 antibody alone): significantly increased; also recorded: Increase | numbers of naive T cells (P1) and central memory T cells (P2) in DLNs (CD8+ T cells; MC38-bearing mice, PD-L1 antibody alone, or addition of FCCP): no further increase | toxic effects such as decrease in mitochondrial mass or fall in membrane potential (CD8+ T cells; at the dose used (1.2 mg/kg)): did not have toxic effects
